Reference: article PMC9839475 (Journal of acquired immune deficiency syndromes (1999), 2023)
Like-named read-outs stand apart in the source and are kept apart here.

How the values were obtained:
[1] = Cohort 1 intensive PK after a single 100 mg doravirine tablet; parameters: species or system adolescents with HIV-1; conditions: in vivo, po
[2] = Cohort 2 sparse PK weeks 4-24, DOR FDC once daily; assay type: in vivo, adolescents with HIV-1
[3] = adults taking 200mg daily; upper PK target of Cohort 1; cited from earlier work
[4] = Cohort 1 safety through week 2; assay type: in vivo, adolescents with HIV-1
HIV-1 = conditions: cited from earlier work
[5] = Cohort 2 week 1 intensive PK, DOR FDC once daily; assay type: in vivo, adolescents with HIV-1; conditions: for time at which Cmax occurred: Cohort 2, week 1, oral DOR/3TC/TDF, intensive PK
CYP3A = conditions: cited from earlier work
[6] = in vivo
[7] = parameters: species or system adolescents with HIV-1; conditions: in vivo

Compound: Cn1c(Cn2ccc(C(F)(F)F)c(Oc3cc(Cl)cc(C#N)c3)c2=O)n[nH]c1=O [Doravirine]
- AUC(0-inf) ([1]; human): 34.8 µM·h
- Tmax, median (range) ([1]; human): 3.78 (1.00–7.75) h
- Vd/F ([1]; human): 115 L
- half-life ([1]; human): 11.8 h
- Tmax ([1]; human, Tmax, median (range)): ~4 h
- Cl/F, geometric mean (geometric CV%) [1]: 6.75 (43) L/h
- geometric mean steady state doravirine concentrations ([2]; Cohort 2, all participants, Week 4 through Week 24): > 560 nM
- DOR plasma concentration, geometric mean ([2]; Cohort 2, week 4, predose, N=45, DOR/3TC/TDF once daily): 747 nM
- DOR plasma concentration, geometric mean ([2]; Cohort 2, week 8, random time, N=44, DOR/3TC/TDF once daily): 1320 nM
- DOR plasma concentration, geometric mean ([2]; Cohort 2, week 12, random time, N=44, DOR/3TC/TDF once daily): 2020 nM
- DOR plasma concentration, geometric mean ([2]; Cohort 2, week 24, 0.5–2 hours post dose, N=43, DOR/3TC/TDF once daily): 1870 nM
- DOR plasma concentration, geometric mean ([2]; Cohort 2, week 24, predose, N=43, DOR/3TC/TDF once daily): 1090 nM
- geometric AUC0–24hr at steady-state [3]: 64 µM·h
- participants who died due to adverse event ([4]; Cohort 1, N=9, 100mg single dose, through week 2): 0 (0) n (%)
- Grade 3 or 4 adverse events ([4]; human, in vivo, 2 weeks): no Grade 3 or 4 adverse events
- participants with at least one Grade 1 or Grade 2 adverse event ([4]; human, in vivo, 2 weeks): 44.4%
- tolerability ([4]; in vivo): well tolerated
- lipid levels compared to darunavir/ritonavir (HIV-1): significantly improved lipid levels
- discontinuations due to adverse events (HIV-1; week 48, doravirine plus 2 NRTIs, adults naïve to antiretroviral therapy): < 1%
- virologic response versus darunavir/ritonavir (HIV-1; week 48, plus 2 NRTIs): not inferior
- Cl/F, geometric mean (geometric CV%) ([5]; Cohort 2, week 1, 100 mg daily as DOR FDC, n=10): 10.3 (47) L/h
- C24,ss observed, geometric mean (geometric CV%) ([5]; Cohort 2, week 1, 100 mg daily as DOR FDC, n=10, 8/10 switched from efavirenz): 282 (74) nM
- Tmax ([5]; human, plasma, oral): ~2 h
- Cmax ([5]; human, plasma, po, 100 mg): 2130 nM
- Tmax ([5]; human, plasma, po, 100 mg): 1.95 h

Compound: O=C1Nc2ccc(Cl)cc2[C@@](C#CC2CC2)(C(F)(F)F)O1 [efavirenz]
- CYP3A induction (CYP3A): moderate CYP3A inducer

Compound: Nc1ccn([C@@H]2CS[C@H](CO)O2)c(=O)n1 [lamivudine]
- time at which Cmax occurred [5]: ~2 h

Compound: C[C@H](Cn1cnc2c(N)ncnc21)OCP(=O)(O)O [tenofovir]
- time at which Cmax occurred [5]: approximately 1 hour

Compound: doravirine/lamivudine/tenofovir disoproxil fumarate [DOR FDC]
- grade 3 diarrhea and gastroenteritis [6]: one participant
- grade 3 increased ALT [6]: one participant
- participants meeting safety endpoint eGFR <60 ml/min/1.73m^2 [6]: No participant
- participants who experienced at least one adverse event [6]: 45 participants
- participants with Grade 1 dizziness assessed as related to the study drug [6]: 2.2%
- participants with concomitant grade 3 increased creatinine [6]: 2
- participants with grade 3 decreased eGFR [6]: Three participants
- participants with no adverse events [6]: 0 (0) n (%)
- participants with one or more Grade 3 or greater adverse events [6]: 9 (20.0) n (%)
- participants with one or more Grade 3 or greater drug-related adverse events [6]: 0 (0) n (%)
- participants with one or more adverse events [6]: 45 (100.0) n (%)
- participants with one or more drug-related adverse events [6]: 1 (2.2) n (%)
- participants with one or more grade 3 adverse events [6]: 20%
- participants with one or more serious adverse events [6]: 1 (2.2) n (%)
- participants with one or more serious drug-related adverse events [6]: 0 (0) n (%)
- tolerability [6]: well tolerated
- Alanine Aminotransferase, mean change [95% CI] [7]: 1.2 [−7.3, 9.6] IU/L
- Alkaline Phosphatase, mean change [95% CI] [7]: −20.7 [−35.1, −6.3] IU/L
- Aspartate Aminotransferase, mean change [95% CI] [7]: 0.8 [−5.1, 6.7] IU/L
- Bilirubin, mean change [95% CI] [7]: −0.0 [−0.2, 0.1] mg/dL
- Creatinine, mean change [95% CI] [7]: 0.0 [0.0, 0.1] mg/dL
- HDL Cholesterol, mean change [95% CI] [7]: −11.3 [−15.9, −6.6] mg/dL
- LDL Cholesterol, mean change [95% CI] [7]: −12.5 [−20.7, −4.2] mg/dL
- eGFR from Creatinine Adjusted for BSA, mean change [95% CI] [7]: −6.5 [−15.2, 2.2] mL/min/1.73m^2
